# Experimental data from patent publication US10526317B2, “Benzocyanine compounds” (PIERCE BIOTECHNOLOGY, INC., priority 2012, dated 2020).
# “Also recorded” adds a separate entry of the source.
# What was measured:
# [1] = tested on: CEA; parameters: species or system nu/nu mice; conditions: mouse
# Experimental: The inventive compounds are used for in vivo imaging as described in J. Gastrointest Surg (2008) 12:1938-1950. Briefly, human pancreatic cell lines are maintained in media supplemented with penicillin/streptomycin at 37° C. with 5% CO2. Mouse anti-CEA antibody and Control Mouse IgG (in PBS with 0.20% sodium azide) are conjugated to V08-15173. The dye is reconstituted at 10 mg/ml in DMF and then added to the antibody at a 10 molar excess. The reaction is carried out for one hour at room temperature. The samples are then dialyzed against 3×2 L of PBS. The cell lines are plated in 96-well plates at 5×10^4 cells per well. After 48 hours culture in appropriate media, the cells are incubated with 1 μg of V08-15173 labeled anti-CEA antibody or V08-15173-labeled control mouse IgG for four hours at 37° C. The cells are then washed three times with PBS and then imaged with an inverted Nikon De-485 microscope and Spot camera RD.
# Surgical procedures and intravital imaging are performed with the animals anesthesized by intramuscular injection of 0.02 ml of 50% ketamine, 38% xylazine and 12 acepromazine maleate. Human pancreatic and colorectal cancer cell lines are harvested by trypsinization and washed twice with serum free medium and washed twice with serum-free medium. Cells (1×10^6 in 100 μl of serum-free media) are injected subcutaneously within 30 minutes of harvesting over the right flank in female nu/nu mice between 4-6 weeks of age. Subcutaneous tumors are allowed to grow for 7-14 days until they reached diameter of 1-2 mm prior to the delivery of conjugated antibody. For ASPC-1 implants, the cells are harvested by trpsinization and washed 3× in serum-free media. The cells are resuspended in serum-free media. The cells are resuspended in serum-free media at 5×10^6/ml. A volume of 200 μl of the cell suspension is then injected directly into the peritoneal cavity within 30 minutes of harvesting.
# For antibody delivery, one to two weeks after subcutaneous, orthotopic, or intraperitoneal tumor implantation, animals are given intravenous (i.v.) injection of either conjugated anti-CEA or conjugated control IgG antibody diluted in PBS to a final volume of 100 μl. All i.v. injections are done via the tail vein. For the dose-response experiment, the antibody dose is 75 μg. For the in vivo time course, the animals are anesthesized and imaged at 30 min, 1, 2, 6, 24 hours and 8 and 15 days after systemic antibody delivery.
# The inventive compounds are used for in vivo imaging as described in J. Gastrointest Surg (2008) 12:1938-1950. Briefly, human pancreatic cell lines are maintained in media supplemented with penicillin/streptomycin at 37° C. with 5% CO2. Mouse anti-CEA antibody and Control Mouse IgG (in PBS with 0.20% sodium azide) are conjugated to 779 Compound 1. […]
# [2] = tested on: lamin A; assay: Immunofluorescence detection of lamin A in U2OS cells, dye-GAM secondary (FIG. 29A-C and repeat); type: cell-based, human; conditions: for Mean Total Intensity, Negative control: no primary antibody
# Experimental: In the indicated experiments, the inventive compounds and commercial dye were evaluated for immunofluorescence in a cell based assay using the following protocol. Frozen U20S cell plates which were stored at −80° C. were thawed for 45 minutes at 50° C. Storage buffer (PBS) was removed and the cells were permeabilized for 15 minutes with 0.1% Triton-X100 in 1×PBS buffer (100 μl/well). The cell plate was blocked for 60 minutes in 2% BSA/PBS-0.1% Triton-X100. Primary antibody, either rat anti-Grp94 (5 μg/ml), mouse anti-lamin A (10 μg/ml), or rabbit anti-lamin B1 (10 μg/ml), diluted in 2% BSA/PBS-0.1% Triton-X100 was added to the plate and incubated for 1 hour at room temperature. Control wells contained only 2% BSA/PBS-0.1% Triton-X100 blocker. After incubation, the antibody solution was removed from the plate and the plate was washed three times with 100 μl/well of PBS-0.5% Tween-20 and one time with 100 μl/well PBS. GARat, GAM, or GAR secondary antibodies labeled with various molar excess of the inventive or commercial compound were diluted to 4 μg/ml in PBS and incubated for 1 hour at room temperature. The plates were washed three times with 100 μl/well of PBST and once with 100 μl/well PBS, and Hoechst (diluted to 0.1 μg/ml in PBS) was added to each well (100 μl/well). The plates were scanned on ArrayScan Plate Reader or ToxInsight Instrument.
# Quantitative analysis of a repeat experiment of FIG. 29A-C are shown below.
# [3] = tested on: lamin A; assay: Immunofluorescence, U2OS cells, mouse anti-lamin A, dye-GAM secondary (FIG. 25); type: cell-based, human
# Experimental: The inventive compounds and commercial dye were evaluated for immunofluorescence in a second cell based assay using the following protocol. Frozen U20S cell plates stored at −20° C. were placed overnight at 4° C. Storage buffer (PBS) was removed and the cells were permeabilized for 15 min (100 μl/well) with 0.1% Triton-X100 in 1×PBS buffer. Plates were blocked for 30 min in 2% BSA in 1× PBS-0.1% Trion-X100. Primary antibodies diluted in 2% BSA in 1×PBS-0.1% Trion-X100 were added to the plates (column 1-11; column 12 included only blocker) and incubated five hours at room temperature. Mouse anti-lamin A was added at 2 μg/ml and rabbit anti-lamin B1 was added at 4 μg/ml. After incubation, the antibody solution was removed from the plates and the plates were washed PBS-0.5% Tween-20 (2×100 μl/well). Next, GAM and GAR secondary antibodies labeled with DyLight 680-NHS, DyLight 680B-NHS, 679 Compound 1-NHS, and Cy5.5 Mono Ester were diluted to 4 μg/ml in PBS and incubated with the cells for one hour at room temperature. […], DyLight 680B-NHS, 679 Compound 1-NHS, […] PBS and then serially diluted 1:1 in the plate to the following concentrations: 2 μg/ml, 1 μg/ml, 0.5 μg/ml, 0.25 μg/ml, 0.125 μg/ml and/or 0.0625 μg/ml. The plates were washed 3× with 100 μl/well PBS, and Hoechst stain diluted to 0.1 μg/ml in PBS was added to each well (100 μl/well). The plates were scanned on ArrayScan Plate Reader for imaging and quantitation.
# Quantitative analysis of FIG. 25 data, expressed as Mean Total Intensity, which is the average total intensity of all pixels within a defined area or defined primary object such as a nucleus, is shown below.
compound,measurement,setting,value
COCCOCCOCCOCC[N+]1=C(/C=C/C=C/C=C2/N(CCOCCOCCOCCOCCC(=O)ON3C(=O)CCC3=O)c3ccc4c(S(=O)(=O)[O-])cc(S(=O)(=O)O)cc4c3C2(C)CCOCCOCCOCCOC)C(C)(CCOCCOCCOCCOC)c2c1ccc1c(S(=O)(=O)O)cc(S(=O)(=O)O)cc21 (stereo not drawn) [Compound V08-15173],Ex vivo analysis of the vital organs (in words),[1],presence of dye predominantly in the liver with some signal detected in the spleen intestines and lungs
same,post-experiment surgical exposure (in words),[1]; in vivo,"accumulation of dye in the liver, bladder, and a region of inflammation in the subcutaneous tissue"
same,S/B,[2]; 2.5 X molar excess,2.9
same,S/B,[2]; 5.0 X molar excess,4.9
same,S/B,[2]; 7.5 X molar excess,6.0
same,S/B,[2]; 10 X molar excess,4.9
same,S/B,[2]; 15 X molar excess,4.6
same,Mean Total Intensity (Average),"[2]; GAM conjugate 4 μg/ml, 2.5 X molar excess",17366
same,Mean Total Intensity (Average),"[2]; GAM conjugate 4 μg/ml, 5.0 X molar excess",32820
same,Mean Total Intensity (Average),"[2]; GAM conjugate 4 μg/ml, 7.5 X molar excess",42876
same,Mean Total Intensity (Average),"[2]; GAM conjugate 4 μg/ml, 10 X molar excess",47756
same,Mean Total Intensity (Average),"[2]; GAM conjugate 4 μg/ml, 15 X molar excess",49060
same,non-specific binding / specificity (in words),[2]; GAM conjugates,a minimal amount of non-specific binding; also recorded: little non-specific binding
same,"Mean Total Intensity, Negative control",[2]; 2.5 X,5966
same,"Mean Total Intensity, Negative control",[2]; 5.0 X,6643
same,"Mean Total Intensity, Negative control",[2]; 7.5 X,7100
same,"Mean Total Intensity, Negative control",[2]; 10 X,9690
same,"Mean Total Intensity, Negative control",[2]; 15 X,10779
same,S/B,"[2]; repeat experiment, 2.5 X",9.8
same,Mean Total Intensity (Average),"[2]; repeat experiment, 2.5 X molar excess",118440
same,S/B,"[2]; repeat experiment, 5 X",19.4
same,Mean Total Intensity (Average),"[2]; repeat experiment, 5 X molar excess",183078
same,S/B,"[2]; repeat experiment, 10X",29.9
same,Mean Total Intensity (Average),"[2]; repeat experiment, 10X molar excess",391473
same,S/B,"[2]; repeat experiment, 15 X",12.2
same,Mean Total Intensity (Average),"[2]; repeat experiment, 15 X molar excess",211270
same,"Mean Total Intensity, Negative control","[2]; repeat experiment, 2.5 X",12053
same,"Mean Total Intensity, Negative control","[2]; repeat experiment, 5 X",9441
same,"Mean Total Intensity, Negative control","[2]; repeat experiment, 10X",13094
same,"Mean Total Intensity, Negative control","[2]; repeat experiment, 15 X",17260
Cy5.5,Mean Total Intensity,[3]; GAM conjugated at 2X molar excess,211945
same,Mean Total Intensity,[3]; GAM conjugated at 3X molar excess,342208
same,Mean Total Intensity,[3]; GAM conjugated at 4X molar excess,451111
